Results published in patent US20070117776A1, “Low Dose Therapy Of DNA Methylation Inhibitors” (priority 2005, published 2007).

Tested on: intermediate and high-risk MDS and CMML
Assay: Randomized low dose decitabine schedules in patients with hematological disorders
Assay type: in vivo, human
Description: Patients with intermediate and high-risk MDS and CMML were randomized to one of three decitabine schedules: (1) 20 mg/m^2 infused intravenously over 1 hour, once daily, for five days; (2) 10 mg/m^2, infused intravenously over one hour, once daily, for ten days; (3) 10 mg/m^2, injected subcutaneously twice a day, for five days.
Decitabine was supplied as a lyophilized powder, 50 mg in 20 mL glass vials, for reconstitution with 10 mL sterile water (Supergen, Inc., Dublin Calif., through Pharmachemie B.V., Haarlem, The Netherlands). The reconstituted stock solution contained 5 mg/mL decitabine, 6.8 mg KH2PO4, and approximately 1.1 mg/mL NaOH. The reconstituted solution was further diluted for intravenous infusion or subcutaneous injection with pharmaceutically acceptable cold infusion fluids (physiological saline, glucose-saline, lactated Ringer's solution). The time delay between preparation of the infusion/injection solution was kept as short as practicable, with refrigerated storage prior to administration not to exceed 4-5 hours.
Patients received one course of treatment (as defined above) every 28 days. […] Patients were allowed 40,000 units of erythropoietin weekly for anemia, or GCSF if needed.
The age of 92 treated patients ranged from 31-90 years (median: 65, with 66% of patients being older than 60); according to IPSS prognostic scores, 25% of patients were classified as intermediate-1, 38% as intermediate-2, 19% as high risk, and 17% as having chronic myelomonocytic leukemia (CMML). […] Twenty-seven patients had had prior erythropoietin; 17 had had prior GCSF, and 22 had had other prior therapies.

[1] = all three schedules, 92 treated patients

myelosuppression (10-day IV cohort (10 mg/m^2 over one hour, once daily, ten days) compared with the other schedules): more myelosuppression
Compound: Nc1ncn([C@H]2C[C@H](O)[C@@H](CO)O2)c(=O)n1 [Decitabine, 4-amino-1-(2-deoxy-β-D-erythro-pentofuranosyl)-1,3,5-triazin-2(1H)-one]
comparison of schedules (5-day IV arm versus the other arms, after 55 patients were randomized): statistically superior | complete remission (patients with CR/patients treated) (5-day IV courses: 20 mg/m^2 infused intravenously over 1 hour, once daily, for five days): 24/57 | complete remission (patients with CR/patients treated) (5-day subcutaneous courses: 10 mg/m^2 injected subcutaneously twice a day, for five days): 4/14 | complete remission (patients with CR/patients treated) (10-day IV courses: 10 mg/m^2 infused intravenously over one hour, once daily, for ten days): 4/17 | CB combined with bone marrow CR [1]: Thirteen | Partial remission (PR) [1]: seven | clinical benefit (CB) [1]: Sixteen | complete remission (CR) [1]: 32 patients | number of treatment courses in patients who achieved CR (median) (one course every 28 days): 3 | number of treatment courses in patients who achieved CR (range) (one course every 28 days): one to six | patients who showed a response (overall) (patients who received at least one course of treatment): 76%
